Test results published in ChEMBL document CHEMBL4390649, “Fine-tuning the neuroprotective and blood-brain barrier permeability profile of multi-target agents designed to prevent progressive mitochondrial dysfunction” (Eur J Med Chem, 2019).
Activity calls are given as the source filed them. No cut-off for these calls is given here.

What was measured:
SH-SY5Y [1] = assay: Induction of ROS generation in human SH-SY5Y cells at 50 uM incubated for 24 hrs by DCFH-DA probe based fluorescence assay relative to control; type: functional
SH-SY5Y [2] = assay: Neuroprotective activity against H2O2-induced oxidative damage in human SH-SY5Y cells assessed as reduction in cell damage at 10 uM pretreated for 24 hrs followed by H2O2 challenge measured after 30 mins by MTT assay relative to control; type: functional
SH-SY5Y [3] = assay: Cytotoxicity against human SH-SY5Y cells assessed as reduction in cell viability incubated for 24 hrs by MTT assay relative to control; type: cell-based
SH-SY5Y [4] = assay: Neuroprotective activity against TBHP-induced oxidative damage in human SH-SY5Y cells assessed as increase in cell viability at 50 uM pretreated for 24 hrs followed by TBHP stimulation measured after 4 hrs by MTT assay relative to control; type: functional
[5] = Cytotoxicity against human SH-SY5Y cells assessed as cell metabolic activity at 10 uM incubated for 24 hrs by MTT assay relative to control; type: ADME, cell-based; conditions: read-out: Activity
[6] = Antioxidant activity assessed as ABTS radical scavenging activity measured after 15 mins by UV-Visible spectrophotometric based assay; type: functional
[7] = Antioxidant activity assessed as DPPH radical scavenging activity measured after 45 mins by UV-Visible spectrophotometric based assay; type: functional
SH-SY5Y [8] = assay: Neuroprotective activity against 6-OHDA-induced toxicity in human SH-SY5Y cells assessed as reduction in cell damage at 10 to 50 uM pretreated for 24 hrs followed by 6-OHDA challenge and measured after 24 hrs by MTT assay relative to control; type: functional
[9] = Electrochemical behavior of the compound assessed as redox potential corrected toward saturated Ag/AgCl reference electrode by differential pulse voltammetry
[10] = Cytotoxicity against human SH-SY5Y cells assessed as cell metabolic activity at 50 uM incubated for 24 hrs by MTT assay relative to control; type: ADME, cell-based; conditions: read-out: Activity
[11] = Cytotoxicity against human HepG2 cells assessed as cell metabolic activity at 10 uM incubated for 48 hrs by resazurin assay relative to control; type: ADME, cell-based; conditions: read-out: Activity
HepG2 = assay: Cytotoxicity against human HepG2 cells assessed as reduction in cell viability incubated for 48 hrs by resazurin assay relative to control; type: cell-based; conditions: hepg2, 48 h
[12] = Metal chelating activity assessed as compound-Fe2+ complex formation at 100 uM incubated for 10 mins by ferrozine spectrophotometric assay
SH-SY5Y [13] = assay: Neuroprotective activity against TBHP-induced oxidative damage in human SH-SY5Y cells assessed as increase in cell viability at 10 uM pretreated for 24 hrs followed by TBHP stimulation measured after 4 hrs by MTT assay relative to control; type: functional, cell-based
SH-SY5Y [14] = assay: Cytotoxicity against human SH-SY5Y cells assessed as reduction in cell viability at 10 uM incubated for 24 hrs by MTT assay relative to control; type: cell-based
[15] = Cytotoxicity against human HepG2 cells assessed as cell metabolic activity at 50 uM incubated for 48 hrs by resazurin assay relative to control; type: ADME, cell-based; conditions: read-out: Activity
[16] = Electrochemical behavior of the compound assessed as redox potential corrected toward saturated Ag/AgCl reference electrode by cyclic voltammetry
[17] = Cytotoxicity against human CMEC/D3 cells assessed as reduction in cell viability at 50 to 100 uM incubated for 4 hrs by MTT assay relative to control; type: cell-based; conditions: hcmec/d3, 4 h
[18] = Apparent permeability across apical to basolateral side in human CMEC/D3 cells at 100 uM incubated by UV-VIS spectroscopic method; type: ADME, cell-based; conditions: hcmec/d3, 100 µM, TDE = time-dependent effect
SH-SY5Y [19] = assay: Neuroprotective activity against H2O2-induced oxidative damage in human SH-SY5Y cells assessed as reduction in cell damage at 50 uM pretreated for 24 hrs followed by H2O2 challenge measured after 30 mins by MTT assay relative to control; type: functional
[20] = Apparent permeability across apical to basolateral side in human CMEC/D3 cells at 100 uM incubated up to 180 mins by UV-VIS spectroscopic method; type: ADME, cell-based; conditions: hcmec/d3, 3 h

| Compound | Activity (SH-SY5Y [1]) | Activity (SH-SY5Y [2]) | Activity (SH-SY5Y [3]) | Activity (SH-SY5Y [4]) | viability at 24 h, 10 µM [5] [%] | IC50 [6] [µM] | IC50 [7] [µM] | Activity (SH-SY5Y [8]) | Activity [9] [mV] | viability at 24 h, 50 µM [10] [%] | viability at 48 h, 10 µM [11] [%] | Activity (HepG2) | Activity [12] [%] | Activity (SH-SY5Y [13]) | viability at 48 h, 50 µM [15] [%] | Activity [16] [mV] | Activity [17] | permeability [18] | Activity (SH-SY5Y [19]) | permeability [20] [%] | other results |
| --- | --- | --- | --- | --- | --- | --- | --- | --- | --- | --- | --- | --- | --- | --- | --- | --- | --- | --- | --- | --- | --- |
| O=C(NCCCCCCCCCC[P+](c1ccccc1)(c1ccccc1)c1ccccc1)c1ccc(O)c(O)c1.[Br-] | 68.4% | inactive | Dose-dependent effect | inactive | 97.8 | 19.4 | 31 | inactive | 210 | 31.1 | 44.6 | Dose-dependent effect | > 80 | inactive | 2.4 | 210 |  |  |  |  | Activity (SH-SY5Y [14]): < 45% |
| CS(=O)(=O)[O-].O=C(CCc1ccc(O)c(O)c1)NCCCCCC[P+](c1ccccc1)(c1ccccc1)c1ccccc1 | 83.1% |  |  | inactive | 93.5 | 28.3 | 55.6 | Active | 132 | 97.5 | 104 |  | > 80 | inactive | 99.3 | 132 | Non-Toxic | Tde | Active | 24.6 |  |
| CS(=O)(=O)[O-].O=C(Cc1ccc(O)c(O)c1)NCCCCCC[P+](c1ccccc1)(c1ccccc1)c1ccccc1 | 81.3% |  |  | 22.3% | 95.3 | 27.2 | 55 | Active | 141 | 96.9 | 103 |  | > 80 | inactive | 100 | 141 | Non-Toxic | Tde | inactive | 71.9 |  |
| CS(=O)(=O)[O-].O=C(CCc1ccc(O)c(O)c1)NCCCCCCCCCC[P+](c1ccccc1)(c1ccccc1)c1ccccc1 | 96.2% |  | Dose-dependent effect | inactive | 96 | 30.1 | 59.1 |  | 122 | 72.5 | 41.8 | Dose-dependent effect | > 80 | inactive | 8.22 | 122 |  |  |  |  | Activity (SH-SY5Y [14]): < 45% |
| CS(=O)(=O)[O-].O=C(Cc1cc(O)c(O)c(O)c1)NCCCCCC[P+](c1ccccc1)(c1ccccc1)c1ccccc1 | Active | inactive |  | inactive | 90.6 | 9.5 | 23.5 | Active | 469 | 93.7 | 106 |  | 95.3 | inactive | 87.7 | 58 | Non-Toxic | Tde | inactive | 65.4 |  |
| O=C(NCCCCCC[P+](c1ccccc1)(c1ccccc1)c1ccccc1)c1cc(O)c(O)c(O)c1.[Br-] | Active | 70.8 - 83.3% |  | inactive | 100 | 6.5 | 14 | inactive | 559 | 98.2 | 89.4 |  | > 80 | inactive | 88.5 | 115 |  |  | 70.8 - 83.3% |  |  |
